Assay results published in patent US20090281110A1, “Method of Treatment” (priority 2006, published 2009).

Tests used:
[1] = system: rat estrogen opposition model; assay: Rat Model of Estrogen Opposition: Uterotrophic Model Assay; assay type: in vivo; conditions: 30 mg/kg/day
Experimental: A rat estrogen opposition model (Lundeen, S. G. et al., (2001) Rat Uterine Complement C3 Expression as a Model for Progesterone Receptor Modulators: Characterization of the New Progestin Trimegestone. J. Steroid Biochem. & Mol. biol. 78, 137-143, incorporated herein to the extent required to perform the present assay) was used to determine the efficacy of Example 2f at 30 mg/kg/day. This was a 48 hour rodent model involving a pre-treatment of compound followed by two days of combined estrogen (0.08 mg/kg) and compound treatment. At termination, uteri were removed from the rats weighed and sectioned for downstream biochemical analysis. Estrogen in this model was pro-inflammatory, inducing edema and infiltration of neutrophils into the endometrium causing a 4 to 5 fold increase in uterine weight. A significant effect of compound treatment on uterine weight was considered approximately a 25% decrease.

[2] = target: T1, recombinant human IL-8 type α and β receptors (Homo sapiens, UniProt P25025); assay: Receptor Binding Assay ([125I] IL-8 / GRO-α displacement, CHO membranes); conditions: receptor subtype (IL-8Rα or IL-8Rβ) not given
T1 sequence (P25025 1-360): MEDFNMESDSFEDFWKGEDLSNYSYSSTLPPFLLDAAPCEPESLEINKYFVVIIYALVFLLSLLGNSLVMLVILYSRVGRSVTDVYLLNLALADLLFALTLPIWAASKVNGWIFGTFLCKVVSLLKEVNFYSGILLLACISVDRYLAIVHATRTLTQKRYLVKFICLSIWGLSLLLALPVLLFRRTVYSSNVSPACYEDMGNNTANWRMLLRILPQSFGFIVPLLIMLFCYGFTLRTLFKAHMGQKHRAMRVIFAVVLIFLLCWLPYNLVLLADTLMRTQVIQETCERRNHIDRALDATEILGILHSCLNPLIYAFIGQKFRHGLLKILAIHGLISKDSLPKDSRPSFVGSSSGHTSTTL

Compound	gene expression level of MMP-9 reduced compared to vehicle control and estrogen treated rats ([1]; rat uterus)	gene expression of C3 reduced compared to estrogen only treatment ([1]; rat uterus)	gene expression of cfos reduced compared to estrogen only treatment ([1]; rat uterus)	reduced estrogen-induced uterine wet weight ([1]; rat, 48 hour model, estrogen 0.08 mg/kg)	IC50 [2]
CN1CCN(S(=O)(=O)c2c(Cl)ccc(NC(=O)Nc3cccc(F)c3Cl)c2O)CC1.Cc1ccc(S(=O)(=O)O)cc1 [Example 2f, N-[4-chloro-2-hydroxy-3-(4-methyl-piperazine-1-sulfonyl)-phenyl]-N′-(2-chloro-3-fluorophenyl)-urea p-toluenesulfonate]	50%	84%	50%	66%+/−5%	
Cl.O=C(Nc1ccc(Cl)c(S(=O)(=O)N2CCNCC2)c1O)Nc1cccc(F)c1Cl [Example 1, N-[4-chloro-2-hydroxy-3-(piperazine-1-sulfonyl)phenyl]-N′-(2-chloro-3-fluorophenyl)urea hydrochloride]					about 13 nM
